{"source": "patent US10045990B2", "about": "“ERBB4 inhibitors and methods of use thereof” (Arizona Board of Regents on behalf of Arizona State …, priority 2015, dated 2018)", "test_system": "protein-tyrosine kinases from the human genome", "details": "compared to the control slides (FIG. 9)", "procedure": "NAPPA kinase microarrays we generated with virtually all protein-tyrosine kinases from the human genome. The coding sequence for each tyrosine kinase was clone into an expression plasmid and immobilized on the microarray surface, with one protein kinase per feature. After the microarray was expressed, any phosphorylation that occurred during the expression step was removed by a treatment with lambda phosphatase.\nUnphosphorylated microarrays were then incubated with a kinase buffer (25 mM Tris-HCl (pH 7.5), 5 mM beta-glycerophosphate, 2 mM dithiothreitol (DTT), 0.1 mM Na3VO4, 10 mM MgCl2) supplemented with […] and/or kinase inhibitors (concentration ranging from 0-10 uM). The kinase autophosphorylation activity was measured through the levels of phosphorylation present in each feature and was detected by phospho-tyrosine antibody. […] Staurosporine is a pan kinase inhibitor used as a control.", "data": [{"smiles": "CN[C@@H]1C[C@H]2O[C@@](C)([C@@H]1OC)n1c3ccccc3c3c4c(c5c6ccccc6n2c5c31)C(=O)NC4", "note": "[Staurosporine]", "values": [{"measurement": "overall phosphorylation signal of the microarrays", "result": "drastically reduce"}]}]}
